Data reported in ChEMBL document CHEMBL3885881, “DrugMatrix”.

Organism: Rattus norvegicus
Experiment: DrugMatrix - Regimen: Daily Repeat
Format: toxicity, organism-based, Sprague-Dawley
Parameters: regimen Daily Repeat, gender Male, age 6-8 weeks
Details: in vivo, po, route oral GAVAGE, […]; for ABSOLUTE BASOPHIL / ABSOLUTE EOSINOPHIL / ABSOLUTE LYMPHOCYTE / ABSOLUTE MONOCYTE / ABSOLUTE SEGMENTED NEUTROPHIL / BASOPHIL / EOSINOPHIL / ERYTHROCYTE COUNT / HEMATOCRIT / HEMOGLOBIN / LEUKOCYTE COUNT / LYMPHOCYTE / MEAN CORPUSCULAR HEMOGLOBIN / MEAN CORPUSCULAR HEMOGLOBIN CONCENTRATION / MEAN CORPUSCULAR VOLUME / MONOCYTE / NEUTROPHIL / NUCLEATED RED BLOOD CELLS / PLATELET COUNT: tissue Blood; for ALANINE AMINOTRANSFERASE / ALBUMIN / ALKALINE PHOSPHATASE / ASPARTATE AMINOTRANSFERASE / BLOOD UREA NITROGEN / CARBON DIOXIDE / CHLORIDE / CHOLESTEROL / CREATINE PHOSPHOKINASE / CREATININE / GLUCOSE / LACTATE DEHYDROGENASE / LIPASE / PHOSPHORUS / POTASSIUM / SODIUM / TOTAL BILIRUBIN / TOTAL PROTEIN / URIC ACID: tissue Plasma
[1] = 12 mg/kg, 120 h, dose level Low, time 5 day
[2] = 380 mg/kg, 72 h, dose level High, time 3 day
[3] = 380 mg/kg, 120 h, dose level High, time 5 day

## COc1ncnc(NS(=O)(=O)c2ccc(N)cc2)c1OC [SULFADOXINE]
[1]
  ABSOLUTE BASOPHIL: 0 CELLS/uL
  ABSOLUTE EOSINOPHIL: 0 CELLS/uL
  ABSOLUTE LYMPHOCYTE: 10205.33 CELLS/uL
  ABSOLUTE MONOCYTE: 178 CELLS/uL
  ABSOLUTE SEGMENTED NEUTROPHIL: 483.33 CELLS/uL
  BASOPHIL: 0%
  EOSINOPHIL: 0%
  ERYTHROCYTE COUNT: 5.46 x10E6/uL
  HEMATOCRIT: 34.5%
  HEMOGLOBIN: 13.53 G/DL
  LEUKOCYTE COUNT: 10.87 x10E3/uL
  LYMPHOCYTE: 94%
  MEAN CORPUSCULAR HEMOGLOBIN: 24.8 pg
  MEAN CORPUSCULAR HEMOGLOBIN CONCENTRATION: 39.27 G/DL
  MEAN CORPUSCULAR VOLUME: 63.17 fL
  MONOCYTE: 1.67%
  NEUTROPHIL: 4.33%
  NUCLEATED RED BLOOD CELLS: 0 /100WBC
  PLATELET COUNT: 1312.33 x10E3/uL
  ALANINE AMINOTRANSFERASE: 52 u/L
  ALBUMIN: 4.1 G/DL
  ALKALINE PHOSPHATASE: 476 u/L
  ASPARTATE AMINOTRANSFERASE: 74.33 u/L
  BLOOD UREA NITROGEN: 11.67 mg/dL
  CARBON DIOXIDE: 31.67 mmol/L
  CHLORIDE: 101.67 MEQ/L
  CHOLESTEROL: 65.33 mg/dL
  CREATINE PHOSPHOKINASE: 233 u/L
  CREATININE: 0.14 mg/dL
  GLUCOSE: 140.33 mg/dL
  LACTATE DEHYDROGENASE: 125.67 u/L
  LIPASE: 11.33 u/L
  PHOSPHORUS: 10.5 mg/dL
  POTASSIUM: 5.98 MEQ/L
  SODIUM: 148.87 MEQ/L
  TOTAL BILIRUBIN: 0.27 mg/dL
  TOTAL PROTEIN: 5.87 G/DL
  URIC ACID: 0.53 mg/dL
[2]
  ABSOLUTE BASOPHIL: 0 CELLS/uL
  ABSOLUTE EOSINOPHIL: 29.33 CELLS/uL
  ABSOLUTE LYMPHOCYTE: 8090 CELLS/uL
  ABSOLUTE MONOCYTE: 197 CELLS/uL
  ABSOLUTE SEGMENTED NEUTROPHIL: 650.33 CELLS/uL
  BASOPHIL: 0%
  EOSINOPHIL: 0.33%
  ERYTHROCYTE COUNT: 5.01 x10E6/uL
  HEMATOCRIT: 31.2%
  HEMOGLOBIN: 12.27 G/DL
  LEUKOCYTE COUNT: 8.97 x10E3/uL
  LYMPHOCYTE: 90%
  MEAN CORPUSCULAR HEMOGLOBIN: 24.6 pg
  MEAN CORPUSCULAR HEMOGLOBIN CONCENTRATION: 39.4 G/DL
  MEAN CORPUSCULAR VOLUME: 62.43 fL
  MONOCYTE: 2.33%
  NEUTROPHIL: 7.33%
  NUCLEATED RED BLOOD CELLS: 0 /100WBC
  PLATELET COUNT: 1128.67 x10E3/uL
  ALANINE AMINOTRANSFERASE: 92.33 u/L
  ALBUMIN: 3.93 G/DL
  ALKALINE PHOSPHATASE: 373.33 u/L
  ASPARTATE AMINOTRANSFERASE: 93.67 u/L
  BLOOD UREA NITROGEN: 13 mg/dL
  CARBON DIOXIDE: 32.33 mmol/L
  CHLORIDE: 99.67 MEQ/L
  CHOLESTEROL: 78 mg/dL
  CREATINE PHOSPHOKINASE: 280 u/L
  CREATININE: 0.14 mg/dL
  GLUCOSE: 143 mg/dL
  LACTATE DEHYDROGENASE: 116.67 u/L
  LIPASE: 11.67 u/L
  PHOSPHORUS: 9.13 mg/dL
  POTASSIUM: 5.99 MEQ/L
  SODIUM: 144.13 MEQ/L
  TOTAL BILIRUBIN: 0.2 mg/dL
  TOTAL PROTEIN: 5.5 G/DL
  URIC ACID: 0.37 mg/dL
[3]
  ABSOLUTE BASOPHIL: 0 CELLS/uL
  ABSOLUTE EOSINOPHIL: 0 CELLS/uL
  ABSOLUTE LYMPHOCYTE: 5345.67 CELLS/uL
  ABSOLUTE MONOCYTE: 97.67 CELLS/uL
  ABSOLUTE SEGMENTED NEUTROPHIL: 423.33 CELLS/uL
  BASOPHIL: 0%
  EOSINOPHIL: 0%
  ERYTHROCYTE COUNT: 5.09 x10E6/uL
  HEMATOCRIT: 32.47%
  HEMOGLOBIN: 12.83 G/DL
  LEUKOCYTE COUNT: 5.87 x10E3/uL
  LYMPHOCYTE: 91.33%
  MEAN CORPUSCULAR HEMOGLOBIN: 25.23 pg
  MEAN CORPUSCULAR HEMOGLOBIN CONCENTRATION: 39.53 G/DL
  MEAN CORPUSCULAR VOLUME: 63.77 fL
  MONOCYTE: 1.67%
  NEUTROPHIL: 7%
  NUCLEATED RED BLOOD CELLS: 0 /100WBC
  PLATELET COUNT: 1282.67 x10E3/uL
  ALANINE AMINOTRANSFERASE: 65.67 u/L
  ALBUMIN: 3.97 G/DL
  ALKALINE PHOSPHATASE: 341.33 u/L
  ASPARTATE AMINOTRANSFERASE: 76 u/L
  BLOOD UREA NITROGEN: 15 mg/dL
  CARBON DIOXIDE: 31.33 mmol/L
  CHLORIDE: 99.33 MEQ/L
  CHOLESTEROL: 75 mg/dL
  CREATINE PHOSPHOKINASE: 205.67 u/L
  CREATININE: 0.2 mg/dL
  GLUCOSE: 145 mg/dL
  LACTATE DEHYDROGENASE: 115.67 u/L
  LIPASE: 10.33 u/L
  PHOSPHORUS: 10.13 mg/dL
  POTASSIUM: 5.99 MEQ/L
  SODIUM: 144.77 MEQ/L
  TOTAL BILIRUBIN: 0.17 mg/dL
  TOTAL PROTEIN: 5.97 G/DL
  URIC ACID: 0.6 mg/dL
